Assay results reported in patent US9763874B2, “Nanoparticles loaded with chemotherapeutic antitumoral drug” (priority 2011, dated 2017).

Experiments:
[1] = system: unresectable HCC; conditions: patients with unresectable HCC; cited from earlier work
[2] = system: HCC; conditions: IV infusion in HCC; cited from earlier work
[3] = system: healthy Wistar rats; assay: Example 2: adverse effects after a single IV bolus injection (mortality, lung injuries); assay type: in vivo, rat; conditions: 7.5 mg/kg single IV bolus
Experimental: The aim of the present in vivo study was to establish and assess a rat model able to induce toxicological signs and lung injuries similar to severe pulmonary adverse events observed in said clinical trial.
The dose levels of 5, 7.5 and 10 mg/kg were chosen according to previous in vivo studies, they respectively correspond to 30 mg/m2, 45 mg/m2 and 60 mg/m2 human doses.
The study involved finally 123 male Wistar rats.
Rats were weighted and distributed according to their individual body weight to form […] the day of IV treatment.
Drug suspension was administered according to the body weight of rat determined just before the administration, so as to administer a dose volume of 670 μl of a 3.71 mg/ml suspension to a 250 g rat. • The rats from groups 13 to 16 received a single IV injection of Doxorubicin at 7.5 mg/kg equivalent Doxorubicin HCl (Q1Dx1). […] Solution was administered according to the body weight of rat determined just before the administration, so as to administer a dose volume of 670 μl solution to a 250 g rat. • The rats from group 21 (Untreated control group) received no treatment.
Treatment allocation was decided at random and was as disclosed in Table 2.

SMILES	overall survival over placebo [1]	objective response rate [2]	mortality and lung injuries [3]
CNC(=O)c1cc(Oc2ccc(NC(=O)Nc3ccc(Cl)c(C(F)(F)F)c3)cc2)ccn1 [sorafenib]	increase even modest	–	–
COc1cccc2c1C(=O)c1c(O)c3c(c(O)c1C2=O)C[C@@](O)(C(=O)CO)C[C@@H]3O[C@H]1C[C@H](N)[C@H](O)[C@H](C)O1 [Doxorubicin, doxorubicin]	–	5-10%	Neither mortality, nor lung injuries
